Read-outs that look alike come from different tables or passages of the source.
Assays:
[1] = target: 5-HT uptake, rat brain synaptosomes (Rattus norvegicus (Rat), UniProt P31652); assay: 5-HT uptake inhibition in rat brain synaptosomes; assay type: biochemical
Experimental: (§1) The effects of exemplary compounds of the invention on the cellular uptake of norepinephrine (NE), dopamine (DA) and serotonin (5-HT) were tested in preparations of synaptosomes from different rat brain regions using the previously-reported techniques referenced below.
(§2) Whole brains were obtained from normal rats. Synaptosomal preparations were made from either whole brain (5-HT), striatum (DA) or hypothalamus (NE) by gentle disruption in 10 volumes (w/v) of 0.32 M sucrose (0-4° C.) using a Teflon-glass homogenizer. The homogenate was then centrifuged at 1000×g for 10 min. The supernatant was retained and centrifuged at 23000 g for 20 min. The resulting pellet was gently resuspended in 200 volumes of 0.32 M sucrose (0-4° C.) using the Teflon-glass homogenizer. Aliquots (250 μL) of this preparation were added to tubes, along with 0.2 μCi/mL of [^3H]5-HT, [^3H]DA, or [^3H]NE, 200 μL of the test compounds (to yield final concentrations of 100 nM, 300 nM, 1 μM, 3 μM, 10 μM, 30 μM or 100 μM) and 1 mL of Krebs-Ringer bicarbonate buffer (pH 7.4). The mixtures were incubated for either 15 (DA and 5-HT uptake) or 20 (NE uptake) minutes at 37° C. At the end of this period, the assay was terminated by rapid filtration over Whatman GF/C glass fiber filters. The filters were rinsed 3 times with 4 ml of Krebs-Ringer bicarbonate buffer (0-4° C.), and the radioactivity retained on the filters measured by liquid scintillation spectrometry.
(§3) Each assay was run according to the description of the respective publications cited above, and according to the following parameters/reagents/conditions.
(§4) In each experiment, the respective reference compound was tested concurrently with the test compounds in order to assess the assay suitability. It was tested at several concentrations (for IC50 value determination). The assay was considered valid if the suitability criteria were met, in accordance with the corresponding Standard Operating Procedure.
(§5) Individual and mean values are presented with the results. The IC50 values (concentration causing a half-maximal inhibition of control values) were determined by non-linear regression analysis of the inhibition curves using Hill equation curve fitting.

[2] = target: dopamine (DA) uptake, rat striatum synaptosomes (Rattus norvegicus (Rat), UniProt P23977); assay: Dopamine (DA) uptake inhibition in rat striatum synaptosomes; assay type: biochemical
Experimental: as §1, §2, §3, §4
as §5, with “The results of these uptake inhibition assays are expressed below as a percent of control values obtained in the […] of the test compounds. Individual” for “Individual”

NET = NET (Homo sapiens (Human), UniProt P23975); assay: NET binding
DAT = DAT (Homo sapiens (Human), UniProt Q01959); assay: DAT binding
SERT = SERT (Homo sapiens (Human), UniProt P31645); assay: SERT binding
[3] = test system: reuptake of norepinephrine, serotonin and dopamine; details: reported in the literature (Skolnick et al. 2003); cited from earlier work
[4] = [3H]5-HT, rat brain synaptosomes, 15 min at 37° C., read-out: Uptake IC50 (nM) 5-HT

Sequence of dopamine (DA) uptake, rat striatum synaptosomes (P23977 whole entry): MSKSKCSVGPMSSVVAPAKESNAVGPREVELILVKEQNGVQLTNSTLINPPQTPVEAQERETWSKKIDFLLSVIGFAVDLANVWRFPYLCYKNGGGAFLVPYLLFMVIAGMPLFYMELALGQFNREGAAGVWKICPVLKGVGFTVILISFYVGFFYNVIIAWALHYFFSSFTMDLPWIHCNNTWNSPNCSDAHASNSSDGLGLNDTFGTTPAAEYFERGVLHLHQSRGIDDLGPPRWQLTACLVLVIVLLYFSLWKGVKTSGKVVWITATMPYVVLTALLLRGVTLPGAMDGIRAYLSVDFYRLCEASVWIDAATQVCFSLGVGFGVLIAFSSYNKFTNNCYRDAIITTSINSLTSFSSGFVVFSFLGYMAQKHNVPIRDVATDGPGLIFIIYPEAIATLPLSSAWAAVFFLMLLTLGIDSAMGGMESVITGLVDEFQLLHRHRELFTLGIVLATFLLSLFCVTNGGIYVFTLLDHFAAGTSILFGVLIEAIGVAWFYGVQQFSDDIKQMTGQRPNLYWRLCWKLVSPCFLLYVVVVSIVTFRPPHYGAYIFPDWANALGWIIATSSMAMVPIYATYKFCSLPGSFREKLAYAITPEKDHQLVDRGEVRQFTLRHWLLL

| SMILES | IC50 [1, 4] | IC50 [2] | Ki (NET; read-out: Binding NET Ki) | Ki (DAT; read-out: Binding DAT Ki) | Ki (SERT; read-out: Binding SERT Ki) | further results |
| --- | --- | --- | --- | --- | --- | --- |
| CN1CC2C[C@@]2(c2ccc3ccccc3c2)C1 (stereo partly shown) | < 10 nM | 82 nM |  |  |  |  |
| CCCN1CC2CC2(c2ccc(Cl)c(Cl)c2)C1 (stereo not shown) | 470 nM | 1000 nM | 1830 nM | 250 nM | 1670 nM |  |
| c1ccc2cc([C@@]34CNCC3C4)ccc2c1 (stereo partly shown) |  | 98 nM |  |  |  | IC50 [1]: 170 nM |
| CCCN1CC2C[C@]2(c2ccc(Cl)c(Cl)c2)C1 (stereo partly shown) | 390 nM | 770 nM | 1070 nM | 170 nM | 2400 nM |  |
| CN1CC2CC2(c2ccc(Cl)cc2Cl)C1 (stereo not shown) | 520 nM | 10000 nM | 6200 nM |  | 500 nM |  |
| CCCCN1CC2CC2(c2ccc(Cl)c(Cl)c2)C1 (stereo not shown) | 1200 nM | 78 nM | 2200 nM | 240 nM | 6100 nM |  |
| Fc1ccc([C@]23CNCC2C3)cc1Cl (stereo partly shown) | 186 nM | 572 nM |  |  |  |  |
| COc1ccc2cc(C34CNCC3C4)ccc2c1 (stereo not shown) | 82 nM | 208 nM |  |  |  |  |
| CC(C)N1CC2CC2(c2ccc(Cl)c(Cl)c2)C1 (stereo not shown) | 30 nM | 260 nM | 827 nM | 39 nM | 124 nM |  |
| CN1CC2C[C@@]2(c2ccc(Cl)c(F)c2)C1 (stereo partly shown) | 413 nM | 437 nM |  |  |  |  |
| CN1CC2CC2(c2ccc(F)c(F)c2)C1 (stereo not shown) | 400 nM | 1800 nM | 990 nM | 1900 nM | 1600 nM |  |
| CN1CC2C[C@]2(c2ccc(Cl)c(Cl)c2)C1 (stereo partly shown) | 87 nM | 130 nM | 490 nM | 62 nM | 125 nM |  |
| CN1CC2C[C@@]2(c2cccc3ccccc23)C1 (stereo partly shown) |  | 903 nM |  |  |  |  |
| CN1CC2C[C@@]2(c2ccc(F)c(Cl)c2)C1 (stereo partly shown) | 362 nM | 494 nM |  |  |  |  |
| COc1ccc2cc(C34CC3CN(C)C4)ccc2c1 (stereo not shown) | 14 nM | 91 nM |  |  |  |  |
| Cc1cc(C23CC2CN(C)C3)ccc1F (stereo not shown) | 200 nM | 370 nM | 920 nM | 2200 nM | 540 nM |  |
| CN1CC2C[C@@]2(c2ccc(Cl)c(Cl)c2)C1 (stereo partly shown) | 23 nM | 120 nM | 81 nM | 105 nM | 16 nM |  |
| CCN1CC2C[C@]2(c2ccc(Cl)c(Cl)c2)C1 (stereo partly shown) | 45 nM | 190 nM | 585 nM | 46 nM | 113 nM |  |
| Fc1cc([C@]23CNCC2C3)ccc1Cl (stereo partly shown) | 252 nM | 420 nM |  |  |  |  |
| Clc1ccc(C23CC2CN(C2CC2)C3)cc1Cl (stereo not shown) | 2600 nM | 1500 nM | 9500 nM | 1700 nM | 3700 nM |  |
| CN1CC2CC2(c2ccc([N+](=O)[O-])c(Cl)c2)C1 (stereo not shown) | 790 nM |  |  |  | 710 nM |  |
| Cc1ccc(C23CC2CN(C)C3)cc1F (stereo not shown) | 110 nM | 700 nM | 260 nM | 270 nM | 830 nM |  |

| SMILES | IC50 [1, 4] | IC50 [2] | Ki (NET; read-out: Binding NET Ki) | Ki (DAT; read-out: Binding DAT Ki) | Ki (SERT; read-out: Binding SERT Ki) | further results |
| --- | --- | --- | --- | --- | --- | --- |
| CN1CC2C[C@]2(c2ccc(F)c(Cl)c2)C1 (stereo partly shown) | 835 nM |  |  |  |  |  |
| c1ccc2cc([C@]34CNCC3C4)ccc2c1 (stereo partly shown) |  | 49 nM |  |  |  | IC50 [1]: 65 nM |
| CCN1CC2C[C@@]2(c2ccc(Cl)c(Cl)c2)C1 (stereo partly shown) | 56 nM | 80 nM | 32 nM | 13 nM | 88 nM |  |
| CN1CC2CC2(c2ccc(F)c(Cl)c2)C1 (stereo not shown) | 79 nM | 770 nM | 350 nM | 640 nM | 190 nM |  |
| CCCCN1CC2C[C@]2(c2ccc(Cl)c(Cl)c2)C1 (stereo partly shown) | 2600 nM | 1200 nM | 1100 nM | 215 nM | 8900 nM |  |
| Cc1ccc(C23CNCC2C3)cc1F (stereo not shown) | 266 nM | 457 nM |  |  |  |  |
| CN1CC2CC2(c2ccc3ccccc3c2)C1 (stereo not shown) | 31 nM | 350 nM | 520 nM | 68 nM | 6 nM |  |
| Cc1ccc([C@]23CC2CN(C)C3)cc1F (stereo partly shown) | 702 nM | 917 nM |  |  |  |  |
| CN1CC2CC2(c2cccc3ccccc23)C1 (stereo not shown) | 119 nM | 512 nM |  |  |  |  |
| Fc1ccc(C23CNCC2C3)cc1Cl (stereo not shown) | 310 nM | 1400 nM | 1700 nM | 680 nM | 230 nM |  |
| CCOc1ccc2cc(C34CNCC3C4)ccc2c1 (stereo not shown) | 700 nM | 563 nM |  |  |  |  |
| CC(C)N1CC2C[C@]2(c2ccc(Cl)c(Cl)c2)C1 (stereo partly shown) | 100 nM | 430 nM | 5150 nM | 72 nM | 132 nM |  |
| Clc1ccc(C23CNCC2C3)cc1Cl (stereo not shown) [1-(3,4-dichlorophenyl)-3-azabicyclo[3.1.0]hexane] |  |  |  |  |  | inhibition of reuptake of norepinephrine, serotonin and dopamine [3]: inhibit reuptake of norepinephrine, serotonin and dopamine |
| CN1CC2C[C@]2(c2ccc3ccccc3c2)C1 (stereo partly shown) | 117 nM | 147 nM |  |  |  |  |
| CC(C)(C)N1CC2CC2(c2ccc(Cl)c(Cl)c2)C1 (stereo not shown) |  |  |  |  |  | IC50 [1]: 240 nM; IC50 ([2]; [3H]DA, rat striatum synaptosomes, 15 min at 37° C., read-out: Uptake IC50 (nM) DA): 1500 nM; Ki (NET): 9300 nM; Ki (DAT): 420 nM; Ki (SERT): 800 nM |
| CN1CC2CC2(c2ccc(F)cc2F)C1 (stereo not shown) | 1100 nM | 7400 nM | 6600 nM |  |  |  |
| Cc1ccc([C@@]23CC2CN(C)C3)cc1F (stereo partly shown) | 836 nM | 383 nM |  |  |  |  |
| CCOc1ccc2cc(C34CC3CN(C)C4)ccc2c1 (stereo not shown) | 210 nM | 360 nM |  |  |  |  |
| Cc1ccc([C@]23CNCC2C3)cc1F (stereo partly shown) | 133 nM | 401 nM |  |  |  |  |
| CCCCN1CC2C[C@@]2(c2ccc(Cl)c(Cl)c2)C1 (stereo partly shown) | 3000 nM | 2200 nM | 1900 nM | 395 nM | 7600 nM |  |
| CC(C)N1CC2C[C@@]2(c2ccc(Cl)c(Cl)c2)C1 (stereo partly shown) | 170 nM | 330 nM | 510 nM | 25 nM | 330 nM |  |
| CCCN1CC2C[C@@]2(c2ccc(Cl)c(Cl)c2)C1 (stereo partly shown) | 590 nM | 1800 nM | 4000 nM | 220 nM | 2000 nM |  |

— US8877798B2, “1-aryl-3-azabicyclo[3.1.0]hexanes: preparation and use to treat neuropsychiatric disorders” (priority 2005, dated 2014)
